Legend:
[1] = fraction of the activity of natural alpha-tocopherol; cited from earlier work
[2] = test system: neuronal cells; details: nM/L concentrations; by suppressing early activation of c-Src kinase and 12-lipoxygenase; cited from earlier work
[3] = test system: cerebral ischemia induced in rats (MCAO); assay: Animal cerebral infarct assay, rat middle cerebral artery occlusion (MCAO) with reperfusion; assay type: in vivo; details: for reduction of total infarct size: gavage, 500 mg/kg
[4] = administered at the time of reperfusion, rats

Q: For `Cc1cc(O)cc2c1O[C@](C)(CCC[C@H](C)CCC[C@H](C)CCCC(C)C)CC2` [Delta-tocopherol], which “activity relative to natural alpha-tocopherol” value [1] is on record?
A: The value was “one hundredth”.

Q: With alpha-tocotrienol as the molecule, how does the “blocking of glutamate-induced death” value [2] read?
A: Its value is “blocked glutamate-induced death”.

Q: What does the source list for `CC(C)=CCC/C(C)=C/CC/C(C)=C/CC[C@@](C)(O)CCC1=C(C)C(=O)C(C)=C(C)C1=O` [alpha-tocotrienol quinone]?
A: reduction of cerebral edema relative to controls [3, 4]: 40%; reduction of total infarct volume relative to controls [3, 4]: 40%; reduction of total ischemic damage relative to controls [3, 4]: 40%; reduction of total infarct size ([3]; administered at reperfusion): 40%; reduction of total infarct size ([3]; administered at the time of MCAO): 40%

Q: With `Cc1c(C)c2c(c(C)c1O)CC[C@@](C)(CCC[C@H](C)CCC[C@H](C)CCCC(C)C)O2` [alpha-tocopherol] as the molecule, how does the “blocking of glutamate-induced death” value [2] read?
A: Its value is “not”.

From patent US20170007553A1, “METHODS FOR THE PREVENTION AND TREATMENT OF CEREBRAL ISCHEMIA” (Edison Pharmaceuticals, Inc., priority 2009, published 2017)
